Results from US10703756B2, “Pyrrolo[2,3-D]pyrimidinyl, pyrrolo[2,3-B]pyrazinyl, pyrrolo[2,3-B]pyridinyl acrylamides and epoxides thereof” (Pfizer Inc., priority 2015, dated 2020).

Key:
[1] = biological target: T1, JAK3 enzyme (Homo sapiens, UniProt P52333); test: JAK Caliper Enzyme Assay at 4 μM ATP; format: biochemical
T1 sequence (P52333 1-1124): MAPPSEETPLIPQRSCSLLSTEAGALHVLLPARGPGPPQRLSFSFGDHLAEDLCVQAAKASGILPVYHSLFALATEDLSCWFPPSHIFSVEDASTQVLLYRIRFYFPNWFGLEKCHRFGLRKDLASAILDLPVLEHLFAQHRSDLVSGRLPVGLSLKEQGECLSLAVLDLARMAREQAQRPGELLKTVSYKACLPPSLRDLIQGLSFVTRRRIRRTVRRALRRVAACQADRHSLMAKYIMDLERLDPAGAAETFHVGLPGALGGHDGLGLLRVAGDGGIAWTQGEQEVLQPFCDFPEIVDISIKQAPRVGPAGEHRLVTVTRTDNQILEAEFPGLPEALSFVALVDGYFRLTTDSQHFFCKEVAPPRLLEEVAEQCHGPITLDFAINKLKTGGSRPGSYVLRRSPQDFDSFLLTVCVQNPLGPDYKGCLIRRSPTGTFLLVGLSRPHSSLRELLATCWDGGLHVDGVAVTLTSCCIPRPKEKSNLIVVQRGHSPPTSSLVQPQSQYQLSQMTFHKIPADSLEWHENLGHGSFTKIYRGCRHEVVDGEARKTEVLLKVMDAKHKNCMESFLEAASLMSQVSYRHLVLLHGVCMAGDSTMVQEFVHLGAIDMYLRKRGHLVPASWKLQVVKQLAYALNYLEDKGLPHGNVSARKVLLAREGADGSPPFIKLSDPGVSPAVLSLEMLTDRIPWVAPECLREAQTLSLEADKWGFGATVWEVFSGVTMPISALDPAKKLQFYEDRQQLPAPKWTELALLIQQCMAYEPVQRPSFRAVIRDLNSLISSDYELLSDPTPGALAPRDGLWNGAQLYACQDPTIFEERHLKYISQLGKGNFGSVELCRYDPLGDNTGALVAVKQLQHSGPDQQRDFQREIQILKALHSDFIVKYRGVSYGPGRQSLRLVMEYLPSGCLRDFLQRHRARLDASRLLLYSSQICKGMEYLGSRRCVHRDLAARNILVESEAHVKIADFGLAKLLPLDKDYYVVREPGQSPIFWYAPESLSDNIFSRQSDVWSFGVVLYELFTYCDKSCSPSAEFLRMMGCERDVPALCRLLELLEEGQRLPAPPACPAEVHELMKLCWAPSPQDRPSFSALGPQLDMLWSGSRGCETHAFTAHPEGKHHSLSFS
Method: (§1) Test article was solubilized in dimethyl sulfoxide (DMSO) to a stock concentration of 30 mM. An 11-point half log dilution series was created in DMSO with a top concentration of 600 μM. […] Test article and assay controls were added to a 384-well plate. […] Enzyme concentrations and incubation times were optimized for each new enzyme preps and were modified slightly over time to ensure 20%-30% phosphorylation. […] The assay plates were placed on a Caliper Life Science Lab Chip 3000 (LC3000) instrument, and each well was sampled using appropriate separation conditions to measure the unphosphorylated and phosphorylated peptide.

[2] = biological target: T1, JAK3 enzyme; test: JAK Caliper Enzyme Assay at 1 mM ATP; format: biochemical
Method: as §1

SMILES	IC50 [1]	IC50 [2]
C=CC(=O)N1CCN(c2cnc3[nH]cc(C(=O)N[C@H](CO)C(CC)CC)c3n2)CC1(C)C [Example 137, 2-(4-acryloyl-3,3-dimethylpiperazin-1-yl)-N-[(2S)-3-ethyl-1-hydroxypentan-2-yl]-5H-pyrrolo[2,3-b]pyrazine-7-carboxamide]	28.1 nM	3020 nM
C=CC(=O)N1CCN(c2cnc3[nH]cc(C(=O)NCC(F)(F)F)c3n2)CC1(C)C [Example 286, 2-(4-acryloyl-3,3-dimethylpiperazin-1-yl)-N-(2,2,2-trifluoroethyl)-5H-pyrrolo[2,3-b]pyrazine-7-carboxamide]	12.4 nM	1020 nM
C=CC(=O)N1C[C@H](Nc2cnc3[nH]cc(C(=O)NCC)c3n2)[C@@](C)(C#N)C1 [Example 240, 2-{[(3R,4S)-1-acryloyl-4-cyano-4-methylpyrrolidin-3-yl]amino}-N-ethyl-5H-pyrrolo[2,3-b]pyrazine-7-carboxamide]	10.9 nM	4060 nM
C=CC(=O)N1CC(Nc2cnc3[nH]cc(C(=O)NCC(C)C)c3n2)C2(CC2)C1 (centres unmarked) [Example 236, 2-[(5-acryloyl-5-azaspiro[2.4]hept-7-yl)amino]-N-(2-methylpropyl)-5H-pyrrolo[2,3-b]pyrazine-7-carboxamide]	45.1 nM	6550 nM
C=CC(=O)N1CCC(Oc2cnc3[nH]cc(C(=O)NC4CCCC(F)(F)C4)c3c2)CC1 (centres unmarked) [Example 339, 5-[(1-acryloylpiperidin-4-yl)oxy]-N-(3,3-difluorocyclohexyl)-1H-pyrrolo[2,3-b]pyridine-3-carboxamide]	16.5 nM	2700 nM
C=CC(=O)N1CC[C@@H](N(C)c2cnc3[nH]cc(C(=O)NCC)c3n2)C1 (single isomer, unassigned) [Example 29]		8310 nM

Compounds with a lower IC50 [2], results first:

IC50 [1]	IC50 [2]	SMILES
4.61 nM	599 nM	C=CC(=O)N1CCN(c2cnc3[nH]cc(C(=O)N[C@H](C)COc4ccccc4)c3n2)CC1(C)C [Example 167, 2-(4-acryloyl-3,3-dimethylpiperazin-1-yl)-N-[(2R)-1-phenoxypropan-2-yl]-5H-pyrrolo[2,3-b]pyrazine-7-carboxamide]
0.182 nM	33 nM	C#CCOCCc1c[nH]c2ncnc(N[C@@H]3CC[C@H](C)N(C(=O)C=C)C3)c12 [Example 131, 1-[(2S,5R)-2-Methyl-5-({5-[2-(prop-2-yn-1-yloxy)ethyl]-7H-pyrrolo[2,3-d]pyrimidin-4-yl}amino)piperidin-1-yl]prop-2-en-1-one]
2.49 nM	501 nM	C=CC(=O)N1CCC(Nc2cnc3[nH]cc(C(=O)NC[C@H](C)CC(F)(F)F)c3n2)CC1C (stereo partly drawn) [Example 280, 2-[(1-acryloyl-2-methylpiperidin-4-yl)amino]-N-[(2R)-4,4,4-trifluoro-2-methylbutyl]-5H-pyrrolo[2,3-b]pyrazine-7-carboxamide]
7.31 nM	845 nM	C=CC(=O)N1CCN(c2cnc3[nH]cc(C(=O)N[C@H](C)COCc4ccccc4)c3n2)CC1(C)C [Example 169, 2-(4-acryloyl-3,3-dimethylpiperazin-1-yl)-N-[(2R)-1-(benzyloxy)propan-2-yl]-5H-pyrrolo[2,3-b]pyrazine-7-carboxamide]
4.07 nM	538 nM	C=CC(=O)N1CCC(Oc2cnc3[nH]cc(C(=O)NCC4(O)CCC(F)(F)CC4)c3n2)CC1 [Example 207, 2-[(1-acryloylpiperidin-4-yl)oxy]-N-[(4,4-difluoro-1-hydroxycyclohexyl)methyl]-5H-pyrrolo[2,3-b]pyrazine-7-carboxamide]
2.41 nM	479 nM	C=CC(=O)N1C[C@H](C)[C@H](Nc2cnc3[nH]cc(C(=O)NCCOC)c3n2)C1 [Example 264, 2-{[(3S,4S)-1-acryloyl-4-methylpyrrolidin-3-yl]amino}-N-(2-methoxyethyl)-5H-pyrrolo[2,3-b]pyrazine-7-carboxamide]
